The target of the assay is T1, ERR1 (also known as ERR-α or ERR-1) (Homo sapiens, UniProt P11474).
T1 sequence (P11474 193-421 limits assumed): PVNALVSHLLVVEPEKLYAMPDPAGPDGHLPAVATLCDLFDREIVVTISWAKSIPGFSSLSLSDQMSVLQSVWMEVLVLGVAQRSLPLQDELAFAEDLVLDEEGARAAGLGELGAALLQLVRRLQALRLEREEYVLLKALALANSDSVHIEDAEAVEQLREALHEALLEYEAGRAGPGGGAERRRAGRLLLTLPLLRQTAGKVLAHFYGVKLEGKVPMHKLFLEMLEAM
The assay can be described thus: TR-FRET assay (disruption of co-activator peptide binding). Format: biochemical. To be noted: 6His-tagged ERR1 LBD, GST-hSRC2 co-activator polypeptide; average of 3 independent experiments. Put shortly:
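His6-ERR1 LBD (6 nM) with GST-SRC-2 peptide (6 nM), anti-GST Eu cryptate (30 nM) and anti-His XL665 (7.5 nM) in Tris pH 8/KCl/DTT/BSA buffer, equilibrated 4-18 h at 25 °C. Ex 340, em 615/665 nm; hyperbolic dose-response fit, mean of 3 experiments.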

As usually defined, the EC50 is the concentration that produces a half-maximal response. Low readings indicate a more potent agent, high ones a less potent agent. `CC(C)(C)NC(=O)[C@@H]1CN(C2=NC(=O)/C(=C/c3ccc4c(cnn4Cc4ccc(Cl)cc4C(F)(F)F)c3)S2)CCN1` [Example 228, (2S)—N-tert-Butyl-4-[5-({1-[4-chloro-2-(trifluoromethyl)benzyl]-1H-indazol-5-yl}methylidene)-4-oxo-4,5-dihydro-1,3-thiazol-2-yl]piperazine-2-carboxamide] returned an EC50 of 0.026 µM.
In turn, `CC(C)(O)c1ccc(Cn2ncc3cc(/C=C4\SC(N5CCN[C@@H](CO)C5)=NC4=O)ccc32)c(Cl)c1` [Example 229, 5-({1-[2-Chloro-4-(1-hydroxy-1-methylethyl)benzyl]-1H-indazol-5-yl}methylidene)-2-[3-(R)-(hydroxymethyl)piperazin-1-yl]-1,3-thiazol-4(5H)-one] displayed an EC50 of 0.58 µM.
Take `C=C(C)c1ccc(Cn2ncc3cc(/C=C4\SC(N5CCN[C@@H](CO)C5)=NC4=O)ccc32)c(Cl)c1` [Example 230, 5-({1-[2-Chloro-4-(1-methylethenyl)benzyl]-1H-indazol-5-yl}methylidene)-2-[3-(R)-(hydroxymethyl)piperazin-1-yl]-1,3-thiazol-4(5H)-one]: a half-maximal response (EC50) required 0.134 µM.
`CC(C)(O)c1ccc(Cn2ncc3cc(/C=C4\SC(N5CCO[C@@H](CO)C5)=NC4=O)ccc32)c(Cl)c1` [Example 231, 5-({1-[2-Chloro-4-(1-hydroxy-1-methylethyl)benzyl]-1H-indazol-5-yl}methylidene)-2-[2-(R)-(hydroxymethyl)morpholin-4-yl]-1,3-thiazol-4(5H)-one] yielded an EC50 of 0.49 µM.
The result for `CN1CCN(C2=NC(=O)/C(=C/c3ccc4c(cnn4Cc4ccc(C(C)(C)O)cc4Cl)c3)S2)CC1` [Example 232, 5-({1-[2-Chloro-4-(1-hydroxy-1-methylethyl)benzyl]-1H-indazol-5-yl}methylidene)-2-(4-methylpiperazin-1-yl)-1,3-thiazol-4(5H)-one] reads 0.795 µM.
For the compound `C[C@@H]1CN(C2=NC(=O)/C(=C/c3ccc4c(cnn4Cc4ccc(C(C)(C)O)cc4Cl)c3)S2)C[C@H](C)N1` [Example 233, 5-({1-[2-Chloro-4-(1-hydroxy-1-methylethyl)benzyl]-1H-indazol-5-yl}methylidene)-2-(3,5-(cis)-dimethylpiperazin-1-yl)-1,3-thiazol-4(5H)-one], the EC50 came to 0.127 µM.
In the case of `COC[C@@H]1CN(C2=NC(=O)/C(=C/c3ccc4c(cnn4Cc4ccc(C(F)(F)F)cc4C(F)(F)F)c3)S2)CCO1` [Example 234, 5-({1-[2,4-Bis(trifluoromethyl)benzyl]-1H-indazol-5-yl}methylidene)-2-[2-(S)-(methoxymethyl)morpholin-4-yl]-1,3-thiazol-4(5H)-one], a half-maximal effect (EC50) was put at 0.016 µM.
`COC[C@@H]1CN(C2=NC(=O)/C(=C/c3ccc4c(cnn4Cc4ccc(Cl)cc4C(F)(F)F)c3)S2)CCO1` [Example 235, 5-({1-[4-Chloro-2-(trifluoromethyl)benzyl]-1H-indazol-5-yl}methylidene)-2-[2-(S)-(methoxymethyl)morpholin-4-yl]-1,3-thiazol-4(5H)-one] returned a 50% effective concentration (EC50) of 0.005 µM.
`COC[C@@H]1CN(C2=NC(=O)/C(=C/c3ccc4c(cnn4Cc4ccc(O)cc4C(F)(F)F)c3)S2)CCO1` [Example 236, 5-({1-[4-Hydroxy-2-(trifluoromethyl)benzyl]-1H-indazol-5-yl}methylidene)-2-[2(S)-(methoxymethyl)morpholin-4-yl]-1,3-thiazol-4(5H)-one]: the midpoint of the response, the EC50, lay at 0.003 µM.
`O=C1N=C(N2CCO[C@@H](CO)C2)S/C1=C\c1ccc2c(cnn2Cc2ccc(Br)cc2C(F)(F)F)c1` [Example 237] came in with a concentration for a half-maximal effect (EC50) of 0.006 µM.
Regarding `C[C@@H]1CN(C2=NC(=O)/C(=C/c3ccc4c(cnn4Cc4ccc(C(F)(F)F)cc4C(F)(F)F)c3)S2)C[C@H](C)N1` [Example 238, 5-({1-[2,4-(trifluoromethyl)benzyl]-1H-indazol-5-yl}methylidene)-2-(3,5-(cis)-dimethylpiperazin-1-yl)-1,3-thiazol-4(5H)-one], the EC50 amounted to 0.011 µM.
Regarding `C[C@@H]1CN(C2=NC(=O)/C(=C/c3ccc4c(cnn4Cc4ccc(C(F)(F)F)cc4C(F)(F)F)c3)S2)C[C@H](C)N1C` [Example 239, 5-({1-[2,4-Bis(trifluoromethyl)benzyl]-1H-indazol-5-yl}methylidene)-2-((3R,5S)-3,4,5-trimethylpiperazin-1-yl)-1,3-thiazol-4(5H)-one], the response was half-maximal at 0.018 µM (EC50).
For `C[C@@H]1CN(C2=NC(=O)/C(=C/c3ccc4c(cnn4Cc4ccc(C(F)(F)F)cc4C(F)(F)F)c3)S2)C[C@H](C)[N+]1(C)C` [Example 240, (2R,6S)-4-[5-({1-[2,4-Bis(trifluoromethyl)benzyl]-1H-indazol-5-yl}methylidene)-4-oxo-4,5-dihydro-1,3-thiazol-2-yl]-1,1,2,6-tetramethylpiperazin-1-ium chloride], it took 0.009 µM to reach a half-maximal effect (EC50).
Consider `C[C@@H]1CN(C2=NC(=O)/C(=C/c3ccc4c(cnn4Cc4ccc(Cl)cc4C(F)(F)F)c3)S2)C[C@H](C)N1` [Example 241, 5-({1-[4-Chloro-2-(trifluoromethyl)benzyl]-1H-indazol-5-yl}methylidene)-2-((3R,5S)-3,5-dimethylpiperazin-1-yl)-1,3-thiazol-4(5H)-one], for which a half-maximal effect (EC50) was put at 0.004 µM.
On to `CN1CCN(C2=NC(=O)/C(=C/c3ccc4c(cnn4Cc4ccc(C(C)(C)O)cc4C(F)(F)F)c3)S2)CC1` [Example 242, 5-({1-[4-(1-Hydroxy-1-methylethyl)-2-(trifluoromethyl)benzyl]-1H-indazol-5-yl}methylidene)-2-(4-methylpiperazin-1-yl)-1,3-thiazol-4(5H)-one], for which the EC50 was found to be 0.03 µM.
Consider `C[C@@H]1CN(C2=NC(=O)/C(=C/c3ccc4c(cnn4Cc4ccc(C(C)(C)O)cc4C(F)(F)F)c3)S2)C[C@H](C)N1` [Example 243, 2-((3R,5S)-3,5-Dimethylpiperazin-1-yl)-5-({1-[4-(1-hydroxy-1-methylethyl)-2-(trifluoromethyl)benzyl]-1H-indazol-5-yl}methylidene)-1,3-thiazol-4(5H)-one], for which the concentration giving a half-maximal response (EC50) was 0.038 µM.
Compound `CC(C)(O)c1ccc(Cn2ncc3cc(/C=C4\SC(N5CCO[C@H](CO)C5)=NC4=O)ccc32)c(C(F)(F)F)c1` [Example 244, 5-({1-[4-(1-Hydroxy-1-methylethyl)-2-(trifluoromethyl)benzyl]-1H-indazol-5-yl}methylidene)-2-[2-(S)-(hydroxymethyl)morpholin-4-yl]-1,3-thiazol-4(5H)-one] displayed an EC50 of 0.11 µM.
For `CC(C)(O)c1ccc(Cn2ncc3cc(/C=C4\SC(N5CCC(C(=O)O)CC5)=NC4=O)ccc32)c(C(F)(F)F)c1` [Example 245] the value was 0.235 µM.
The compound `CC(C)(O)c1ccc(Cn2ncc3cc(/C=C4\SC(N5CCN[C@@H](CO)C5)=NC4=O)ccc32)c(C(F)(F)F)c1` [Example 246, 5-({1-[4-(1-Hydroxy-1-methylethyl)-2-(trifluoromethyl)benzyl]-1H-indazol-5-yl}methylidene)-2-[3-(R)-(hydroxymethyl)piperazin-1-yl]-1,3-thiazol-4(5H)-one] yielded a concentration giving a half-maximal response (EC50) of 0.23 µM.
The compound `C=C(C)c1ccc(Cn2ncc3cc(/C=C4\SC(N5CCN[C@@H](CO)C5)=NC4=O)ccc32)c(C(F)(F)F)c1` [Example 247, 2-[3-(R)-(Hydroxymethyl)piperazin-1-yl]-5-({1-[4-(1-methylethenyl)-2-(trifluoromethyl)benzyl]-1H-indazol-5-yl}methylidene)-1,3-thiazol-4(5H)-one] showed an EC50 of 0.041 µM.
The result for `COc1ccc(Cn2ncc3cc(/C=C4\SC(N5CCN[C@@H](CO)C5)=NC4=O)ccc32)c(C(F)(F)F)c1` [Example 248, 2-[3-(R)-(Hydroxymethyl)piperazin-1-yl]-5-({1-[4-methoxy-2-(trifluoromethyl)benzyl]-1H-indazol-5-yl}methylidene)-1,3-thiazol-4(5H)-one] reads 0.014 µM.
As for `O=C1N=C(N2CCO[C@@H](CO)C2)S/C1=C\c1ccc2c(cnn2Cc2ccc(O)cc2C(F)(F)F)c1` [Example 249, 2-[(2R)-2-(Hydroxymethyl)morpholin-4-yl]-5-({1-[4-hydroxy-2-(trifluoromethyl)benzyl]-1H-indazol-5-yl}methylidene)-1,3-thiazol-4(5H)-one], the midpoint of the response, the EC50, lay at 0.004 µM.
In turn, `O=C1N=C(N2CCN[C@@H](CO)C2)S/C1=C\c1ccc2c(cnn2Cc2ccc(O)cc2C(F)(F)F)c1` [Example 250, 2-[(3R)-3-(Hydroxymethyl)piperazin-1-yl]-5-({1-[4-hydroxy-2-(trifluoromethyl)benzyl]-1H-indazol-5-yl}methylidene)-1,3-thiazol-4(5H)-one] yielded an EC50 of 0.19 µM.
`O=C1N=C(N2CCO[C@H](CO)C2)S/C1=C\c1ccc2c(cnn2Cc2ccc(O)cc2C(F)(F)F)c1` [Example 251, 2-[(2S)-2-(Hydroxymethyl)morpholin-4-yl]-5-({1-[4-hydroxy-2-(trifluoromethyl)benzyl]-1H-indazol-5-yl}methylidene)-1,3-thiazol-4(5H)-one] gave a concentration giving a half-maximal response (EC50) of 0.004 µM.
Take `CN(C)[C@@H]1CCN(C2=NC(=O)/C(=C/c3ccc4c(cnn4Cc4ccc(C(F)(F)F)cc4C(F)(F)F)c3)S2)C1` [Example 252, 5-({1-[2,4-Bis(trifluoromethyl)benzyl]-1H-indazol-5-yl}methylidene)-2-[(3R)-3-(dimethylamino)pyrrolidin-1-yl]-1,3-thiazol-4(5H)-one]: the half-maximal effective concentration (EC50) worked out at 0.19 µM.
For `CN1CCN(C2=NC(=O)/C(=C/c3ccc4c(cnn4Cc4ccc(C(F)(F)F)cc4C(F)(F)F)c3)S2)[C@@H](CO)C1` [Example 253, 5-({1-[2,4-Bis(trifluoromethyl)benzyl]-1H-indazol-5-yl}methylidene)-2-[(2R)-2-(hydroxymethyl)-4-methylpiperazin-1-yl]-1,3-thiazol-4(5H)-one] the value was 0.005 µM.
